Laboratory results as given in ChEMBL document CHEMBL1133042, “Convergent synthesis of ribonuclease L-active 2',5'-oligoadenylate-peptide nucleic acids” (Bioorg Med Chem Lett, 2000).

Experiments:
[1] = target: T1, 2-5A-dependent ribonuclease (Homo sapiens) (UniProt Q05823); experiment: Relative binding affinity of compound to human recombinant Ribonuclease L, compared to that of 2-5A standard (Crel=1); No binding detected
T1 sequence (whole entry): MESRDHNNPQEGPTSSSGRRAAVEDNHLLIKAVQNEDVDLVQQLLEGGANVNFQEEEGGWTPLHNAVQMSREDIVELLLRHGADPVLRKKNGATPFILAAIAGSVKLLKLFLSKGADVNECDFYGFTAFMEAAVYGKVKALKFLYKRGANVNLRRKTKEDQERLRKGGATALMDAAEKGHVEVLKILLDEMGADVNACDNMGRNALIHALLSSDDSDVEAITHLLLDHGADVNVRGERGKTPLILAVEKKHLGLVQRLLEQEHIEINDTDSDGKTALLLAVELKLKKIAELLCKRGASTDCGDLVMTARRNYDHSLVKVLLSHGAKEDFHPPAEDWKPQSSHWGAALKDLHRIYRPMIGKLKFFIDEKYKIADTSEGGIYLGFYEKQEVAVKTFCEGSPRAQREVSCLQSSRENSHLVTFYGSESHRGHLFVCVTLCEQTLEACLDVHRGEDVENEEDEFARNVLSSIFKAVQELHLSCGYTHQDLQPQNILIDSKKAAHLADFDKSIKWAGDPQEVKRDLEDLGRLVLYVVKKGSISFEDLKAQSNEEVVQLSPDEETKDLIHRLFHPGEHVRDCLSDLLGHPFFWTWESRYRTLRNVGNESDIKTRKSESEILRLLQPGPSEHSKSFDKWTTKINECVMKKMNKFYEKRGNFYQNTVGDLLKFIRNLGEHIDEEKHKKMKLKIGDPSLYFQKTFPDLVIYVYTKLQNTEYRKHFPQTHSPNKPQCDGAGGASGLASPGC

[2] = target: T1, 2-5A-dependent ribonuclease (Homo sapiens); experiment: Relative ability of compound to activate Ribonuclease L to cleave poly(U)p[32P]Cp, compared to that of 2-5A standard (Crel=1); No cleavage detected
[3] = target: T1, 2-5A-dependent ribonuclease (Homo sapiens); experiment: Relative ability of compound to activate Ribonuclease L to cleave poly(U)p[32P]Cp, compared to that of 2-5A standard (Crel=1)
[4] = target: T1, 2-5A-dependent ribonuclease (Homo sapiens); experiment: Relative binding affinity of compound to human recombinant Ribonuclease L, compared to that of 2-5A standard (Crel=1)

Crel [1]	Crel [2]	Crel [3]	Crel [4]	SMILES
No binding	No cleavage	–	–	Cc1cn(CC(=O)N(CCNC(=O)CN(CCNC(=O)CN(CCNC(=O)CN(CCNC(=O)COCCOCCNC(=O)COCCOCCN2CC(COP(=O)(O)O)OC(n3cnc4c(N)ncnc43)C2)C(=O)Cn2cc(C)c(=O)[nH]c2=O)C(=O)Cn2cc(C)c(=O)[nH]c2=O)C(=O)Cn2cc(C)c(=O)[nH]c2=O)CC(N)=O)c(=O)[nH]c1=O (stereo not given)
–	–	47.6	0.7	CO[C@H]1[C@@H](OP(=O)(O)OC[C@H]2O[C@@H](n3cnc4c(N)ncnc43)[C@H](OP(=O)(O)OC[C@@H]3CN(CCOCCOCC(=O)NCCOCCOCC(=O)NCCN(CC(=O)NCCN(CC(=O)NCCN(CC(=O)NCCN(CC(N)=O)C(=O)Cn4cc(C)c(=O)[nH]c4=O)C(=O)Cn4cc(C)c(=O)[nH]c4=O)C(=O)Cn4cc(C)c(=O)[nH]c4=O)C(=O)Cn4cc(C)c(=O)[nH]c4=O)C[C@H](n4cnc5c(N)ncnc54)O3)[C@@H]2O)[C@H](n2cnc3c(N)ncnc32)O[C@@H]1COP(=O)(O)O
No binding	No cleavage	–	–	Cc1cn(CC(=O)N(CCNC(=O)CN(CCNC(=O)CN(CCNC(=O)CN(CCNC(=O)COCCOCCNC(=O)COCCOCCN2C[C@@H](COP(=O)(O)O[C@@H]3[C@H](O)[C@@H](COP(=O)(O)O)O[C@H]3n3cnc4c(N)ncnc43)O[C@@H](n3cnc4c(N)ncnc43)C2)C(=O)Cn2cc(C)c(=O)[nH]c2=O)C(=O)Cn2cc(C)c(=O)[nH]c2=O)C(=O)Cn2cc(C)c(=O)[nH]c2=O)CC(N)=O)c(=O)[nH]c1=O
–	–	1	1	Nc1ncnc2c1ncn2[C@@H]1O[C@H](COP(=O)(O)O[C@@H]2[C@H](O)[C@@H](COP(=O)(O)O[C@@H]3[C@H](O)[C@@H](COP(=O)(O)O)O[C@H]3n3cnc4c(N)ncnc43)O[C@H]2n2cnc3c(N)ncnc32)[C@@H](O)[C@H]1O
–	–	14	1	CO[C@H]1[C@@H](OP(=O)(O)OC[C@H]2O[C@@H](n3cnc4c(N)ncnc43)[C@H](OP(=O)(O)OC[C@H]3O[C@@H](n4cnc5c(N)ncnc54)[C@H](OP(=O)(O)OC[C@H]4O[C@@H](n5cnc6c(N)ncnc65)[C@H](OP(=O)(O)O[C@@H]5CN(CCOCCOCC(=O)NCCOCCOCC(=O)NCCN(CC(=O)NCCN(CC(=O)NCCN(CC(=O)NCCN(CC(N)=O)C(=O)Cn6cc(C)c(=O)[nH]c6=O)C(=O)Cn6cc(C)c(=O)[nH]c6=O)C(=O)Cn6cc(C)c(=O)[nH]c6=O)C(=O)Cn6cc(C)c(=O)[nH]c6=O)C[C@H](n6cnc7c(N)ncnc76)O5)[C@@H]4O)[C@@H]3OC)[C@@H]2O)[C@H](n2cnc3c(N)ncnc32)O[C@@H]1COP(=O)(O)O
